Assay results from a melting point compilation (Tetko et al.; mined from patent text by program, amines drawn as free bases though some values may be those of a salt).

Row | Structure (SMILES) | melting point [°C]
1 | CCC(C)C(NS(=O)c1ccc(C)cc1)C1(C(=O)NC)SCCS1 (stereo unspecified) | 147 to 154
2 | COC(=O)c1cncc(O)c1 | 186 to 187
3 | CCc1cc(NC(=O)c2cccs2)cc(CC)c1O | 190 to 192
4 | O=C(Cc1ccccc1)OC1c2ccccc2C(=O)N1c1ccc2ccc(Cl)nc2n1 (stereo unspecified) | 222 to 224
5 | N#Cc1ccc(C2=NNC(=O)C3CC23)cc1 (stereo unspecified) | 265 to 266
6 | COc1ccc2c(c1)S(=O)(=O)C(C#N)=C(C)N2 | 307 to 308
7 | CC(C)CCNC(Nc1cc(C(F)(F)F)cc(C(F)(F)F)c1)=C(C#N)C#N | 158 to 159
8 | COC(=O)c1ccc(Cl)c(C)c1N | 72 to 74
9 | COC(=O)N1C(C(=O)O)CSC1c1ccccc1 (stereo unspecified) | 129 to 130
10 | NS(=O)(=O)c1cc2c(Cl)nccc2o1 | 192 to 194
11 | COC(=O)[C@@H](NC(=O)Nc1n[nH]c(=S)s1)[C@@H](C)OCc1ccccc1 | 88 to 90
12 | O=C(O)c1ccc(OCCCCCCc2cccc(O)c2O)cc1O | 179 to 180
13 | C#CCN1CCC=C(c2ccc(C(C)(C)CCCCCC)cc2O)C1 | 116 to 117
14 | CCOC(=O)c1ncn(-c2nc(C)cs2)c1N | 152 to 155
15 | COc1cc(NC(=O)CC#N)c(Cl)cc1Cl | 180 to 181
16 | COc1ccc(N)c(C(=O)CS(=O)(=O)N(C)C)c1 | 198 to 200
17 | CC(C)c1cc(C(C)C)c(CC(=O)NS(=O)(=O)Oc2c(C(C)C)cc(CNC(=O)CN)cc2C(C)C)c(C(C)C)c1 | 193 to 195
18 | C[C@@H]1C(=O)C[C@H]2C[C@@H]1OO[C@@]2(C)/C=C/c1cc(C(F)(F)F)nc2c(Cl)cc(Cl)cc12 | 196
19 | CN(C)C1(c2ccccc2)CCC(NC(=S)NCCc2c[nH]c3ccccc23)CC1 (stereo unspecified) | 98 to 103
20 | COc1cc(OC)nc(NC(=O)NS(=O)(=O)Nn2cccc2C(=O)C(F)(F)F)n1 | 145 to 147
21 | CC(C)(C)OC(=O)CCC(N)(CCC(=O)OC(C)(C)C)CCC(=O)OC(C)(C)C | 84 to 86

Row | Structure (SMILES) | melting point [°C]
22 | CC(C)NCC1(O)COc2ccc(O)cc2OC1 (stereo unspecified) | 108 to 110
23 | O=C(Cc1ccccc1I)Nc1ccccc1I | 160 to 163
24 | CC(=O)NCCC1(C[N+](=O)[O-])CCCCC1 | 68 to 70
25 | CCOC(=O)c1cn(-c2cnccn2)cn1 | 128 to 129
26 | NCCc1ccc(OCCC(=O)O)cc1 | 216
27 | CC(=O)C(=NNc1ccccc1)C(N)=O | 146 to 147
28 | O=CNc1ccc(C=O)cc1[N+](=O)[O-] | 183 to 191
29 | N#CC(CCN1CCC(c2ccccc2)CC1)(c1ccccc1)c1ccccc1 | 88 to 89.5
30 | Cc1ccc2cc(CC(=O)O)c(=O)[nH]c2n1 | > 250
31 | CC(CNC(=O)C=CC=Cc1ccccc1)C(=O)NO (stereo unspecified) | 178 to 179
32 | CCOC(=O)c1c(NC(C)=O)sc2c1C=CC=CC=CC=CC=C2 | 54 to 74
33 | c1ccc2c(c1)CC1(CCNCC1)O2 | 56 to 58.5
34 | COc1ccc(Cc2ccc(C#N)cc2)cc1 | 41.5 to 43.5
35 | OCCc1c(Br)cc(Br)c2cccnc12 | 128 to 131
36 | OC1(C#Cc2cccc(Cl)c2)CCNC1 (stereo unspecified) | 153 to 160
37 | Nc1n[nH]c(-c2cc(Cl)nc(Cl)c2)n1 | 240 to 250
38 | CCCCCC1OC12CCC(Nc1ncnc(CC)c1Cl)CC2 (stereo unspecified) | 41 to 42
39 | Cc1c(CCC(=O)O)cc(C(C)(C)C)c(O)c1C | 191 to 193
40 | CNc1nc(Cl)nc2c1ncn2C1OC(CO)C(O)C1O (stereo unspecified) | 224 to 225
41 | COc1ccc2[nH]cc(CN(C)C)c2c1Cl | 145 to 149

More lines, now with the values ahead:

Row | melting point [°C] | Structure (SMILES)
42 | 290 | O=C(O)c1cn(C2CC2)c2cc(N3CC4CC4C3)c(F)cc2c1=O (stereo unspecified)
43 | 154 to 156 | COc1ccc(Cc2nc3n(c2Cc2ccc(OC)cc2)CCS3)cc1
44 | 270 to 272 | CCn1cc(C=CC(=O)NC2CCNC(=O)C2)nc1-c1ccccc1 (stereo unspecified)
45 | 92 to 93 | CC(C)(C)OC(=O)Nc1ccn2nc(N3CCOCC3)nc2c1
46 | 219 to 221 | COc1ccccc1-c1ccc(S(N)(=O)=O)c(N)c1
47 | 102 to 103 | ClCc1conc1-c1ccc(-c2ccccc2)cc1
48 | 192 to 193 | COc1ccc(N2CCN(c3ccc(OC)nc3-c3ccc(N(C)C)cc3)CCC2=O)cc1
49 | 160 to 162 | CCCN(Cc1ccc(-c2ccccc2-c2nnn[nH]2)cc1)c1ncncc1C(=O)OCC
50 | 192 to 194 | CN(O)C(=O)C(C)(C)Cc1ccc2c(c1)C(=O)c1ccccc1CO2
51 | 157 to 159 | CN1CC2CN(C(=O)N3c4ccccc4C(=O)Nc4cccnc43)CC2C1 (stereo unspecified)
52 | 84 to 86 | CC(C)(C)OC(=O)NC1CCN(C(=O)OCCC2(C(=O)NCC(F)(F)F)c3ccccc3-c3ccccc32)CC1
53 | 310 to 312 | COc1cc2c(cc1-c1cccnc1)-c1c(-c3cccnc3)c3c(n1CC2)C(=O)N(C(C)(C)C)CCC3
54 | 173 to 176 | O=c1oc(-c2ccc(C(F)(F)F)cc2)nn1Cc1cc(Cl)ccc1OP(=O)(O)O
55 | 193 to 195 | COc1cc(C(=O)CS(C)(=O)=O)cc(OC)c1NC(C)=O
56 | 140 to 142 | COc1ccc(C(Cl)=C(C#N)c2ccc(OC)cc2)cc1
57 | 139 to 140 | COc1ccc2c(c1OC)CCC=C2C#N
58 | 58 | O=C(O)c1cc(NCc2c(F)c(F)c(C(F)(F)F)c(F)c2F)ccc1Cl
59 | 114 to 116 | CN1CCC(c2cnc3ccc(C(=O)Nc4ccc(F)cc4)[nH]c2-3)CC1
60 | 85 to 95 | COc1cccc(CNc2ccc(C(C)=O)cc2)c1OCCCC(=O)O
61 | 221 | Cc1ccc(N2C(=O)C(O)=C(C(=O)c3ccccc3C)C2c2ccc(C(C)C)cc2)nn1 (stereo unspecified)

Row | melting point [°C] | Structure (SMILES)
62 | 192 | CCOC(=O)COc1ccc(/C=C/c2nc3c(c(=O)n(CC)c(=O)n3CC)n2C)cc1
63 | 185 to 187 | Cc1ccc(Cl)c(Nc2ccccc2C(N)=O)c1Cl
64 | 149 to 150 | COc1ccc(C=C(C=O)C(C=O)=Cc2ccc(OC)c(OC)c2)cc1OC
65 | 200 | COC(=O)c1cc2cc(OC)ccc2n1C
66 | 157 to 159 | Clc1ccccc1CSc1nc2cccc3c2n1CCC3
67 | 83 to 84 | c1cn(CCCc2ccc(OCc3coc(-c4cc5c(s4)CCCC5)n3)cc2)cn1
68 | 123 to 126 | CC(=O)N1OCC(=O)N(CO)C1c1ccccc1 (stereo unspecified)
69 | 91 to 92 | CCOP(=O)(Cc1ccccc1CN1C(=O)c2ccccc2C1=O)OCC
70 | 266 to 267 | CCCCc1cc2c(=O)n3cc(C(N)=O)ccc3nc2s1
71 | 167 | Cc1cc(OC2CN(C(=O)c3nnc(-c4ccccc4)o3)C2)ccc1CN1CCC(C)(CO)CC1
72 | 103 to 104 | CCOC(=O)C(Cc1ccc(OCCNC(=O)c2ccc(-c3ccccc3)cc2)cc1)Oc1ccccc1 (stereo unspecified)
73 | 262 to 263 | Cc1cc(CC(=O)O)ccc1NC(=O)Nc1ccccc1C(F)(F)F
74 | 109 to 110 | Cc1ccccc1C(=NC#N)NC(NC(=O)Cc1ccc(Cl)cc1)C(C)(C)C (stereo unspecified)
75 | 143 to 145 | O=C(O)CCn1nnnc1-c1ccc2c(c1)S(=O)(=O)c1ccccc1C2=O
76 | 190 | O=C1c2ccccc2C(O)N1CCCN1CCN(c2ccc(O)cc2)CC1 (stereo unspecified)
77 | 125 to 127 | CC1(C)OC(=O)c2ccc(COc3c(F)cc([N+](=O)[O-])cc3F)cc21
78 | 128 to 129 | COC(=O)NC(=O)CC1=C(Cc2ccc3c(Br)cccc3c2)C(=O)CCC1
79 | 122 to 124 | ON=Cc1ccccc1OCc1ccc(Cl)cc1
80 | 171 to 172 | COc1ccc(C(=O)Oc2ccc(C(=O)OCc3ccccc3)c(O)c2)cc1C12CC3CC(CC(C3)C1)C2
81 | 245 to 248 | CC(=C1SC(=O)NC1=O)c1ccc(OCCOc2c(-c3ccc(F)cc3)n(C)c3ccc(F)cc3c2=O)cc1

Row | melting point [°C] | Structure (SMILES)
82 | 199 to 201 | COc1ccc(-c2cc3ccccc3[nH]2)cc1NC(=S)Nc1cc(Cl)cc(Cl)c1
83 | 125 to 126 | CC(=O)OCc1cc2cc(-c3ccc(OC(F)(F)F)cc3)ccc2n1Cc1ccc(C)cc1
84 | 116 to 118 | CCC1Cc2cc3c(cc2C(c2ccc([N+](=O)[O-])cc2)O1)OCO3 (stereo unspecified)
85 | > 230 | N#CC1=C(C2CC(=O)N(Cc3ccccc3)C2)Nc2n[nH]cc2C1c1ccccc1Cl (stereo unspecified)
86 | 166 to 167 | O=C(O)C(Cc1ccccc1)=NNc1ccc(Cl)c(Cl)c1
87 | 228 | O=C(CC1(c2ccccc2)C(=O)Oc2ccc(Cl)cc21)N1CCN(c2ccc(C(F)(F)F)cn2)CC1 (stereo unspecified)
88 | 160 to 162 | Cc1nc(N)nc(N)c1OCCCc1ccccc1
89 | 274 to 275 | O=C1OC(=Cc2ccc3ccccc3c2)C(=O)C(c2ccc(Cl)cc2)=C1O
90 | 103 to 109 | Cc1c(N2CCC3(CC3N)C2)c(F)cc2c(=O)c(C(=O)O)cn([C@@H]3C[C@@H]3F)c12 (stereo partly specified)
91 | 65 to 67 | COc1ccc(-n2cnc(-c3cc(OC)c(OC)c(OC)c3)c2-c2ccc(OC)c(O)c2)cc1
92 | 227 | CCOC(=O)c1c(N2CCN(C(=O)c3cccs3)CC2)c2cscc2n(Cc2ccc(F)cc2)c1=O
93 | 132 to 134 | CCCc1nc2c(N)nc(C)c(C)c2n1CCCCN(O)C(=O)c1ccccc1
94 | 137 to 138 | CC(C)(CC(=O)c1ccc(Cl)c(Cl)c1)C(=O)O
95 | 105 to 106 | COC(=O)[C@H]1Cc2cc(SC)ccc2C(=O)[C@H](C)S1 (relative stereo)
96 | 91 to 92 | CCOC(=O)[C@@H]1C[C@H](OS(=O)(=O)c2ccc(C)cc2)CN1C(=O)OCc1ccccc1
97 | 56 to 58 | CC(=O)Oc1c(Cc2ccccc2)ccc2c1ccn2C
98 | 246 to 247 | CC1Cc2cc3c(cc2C(c2ccc([N+](=O)[O-])cc2)=NN1c1nc(=O)n(C2CC2)s1)OCO3 (stereo unspecified)
99 | 245 to 247 | COc1ccc2nc3ccc(OC)cc3c(C(=O)Oc3c(Br)cccc3Br)c2c1
100 | 172 to 173 | FC(F)(F)c1ccnc(Oc2ccc(CCOc3ncnc4nccnc34)cc2)c1
101 | 161 to 163 | CCSc1nc2c(C)ccnc2n1Cc1ccc(C2(Br)CC(C#N)=CN2C)cc1 (stereo unspecified)
